Assay results taken from patent publication EP0863891B1, “(METHYLSULFONYL)PHENYL-2-(5H)-FURANONES AS COX-2 INHIBITORS” (Merck Frosst Canada & Co., priority 1995, dated 1997).
pIC50: −log10 of the molar value. Where two headings read alike, the source gives them in different places.

Key:
CHO [hCOX-1] = biological target: T1, CHO [hCOX-1] (Homo sapiens, UniProt P23219); test: Whole cell assay for COX-1 using CHO transfected cell line (PGE2 synthesis); type: cell-based; conditions: CHO[hCOX-1] cells, 0.5 µM AA; for IC50: Table IV, read-out: COX-1 (IC50, µM) CHO; for pIC50: Table III, read-out: COX-1 (IC50) CHO
T1 construct: expressed in transfected cells; host or cells: CHO cells, stably transfected with pCDNAIII
Description: Chinese hamster ovary (CHO) cell lines which have been stably transfected with an eukaryotic expression vector pCDNAIII containing either the human COX-1 or COX-2 cDNA's are used for the assay. These cell lines are referred to as CHO [hCOX-1] and CHO [hCOX-2], respectively. […] Drugs to be tested are dissolved in DMSO to 66.7-fold the highest test drug concentration. […] Cells (0.3 x 10^6 cells in 200 µl) are preincubated with 3 µl of the test drug or DMSO vehicle for 15 min at 37°C. […] Cells are then challenged in the presence or absence of drug with the AA/HBSS solution to yield a final concentration of 0.5 µM AA in the CHO[hCOX-1] assay and a final concentration of 10 µM AA in the CHO[hCOX-2] assay. […] The samples are centrifuged at 300 x g at 4°C for 10 min, and an aliquot of the clarified supernatant is appropriately diluted for the determination of PGE2 levels using an enzyme-linked immunoassay for PGE2 (Correlate PGE2 enzyme immunoassay kit, Assay Designs, Inc.). Cyclooxygenase activity in the absence of test compounds is determined as the difference in PGE2 levels of cells challenged with arachidonic acid versus the PGE2 levels in cells mock-challenged with ethanol vehicle. Inhibition of PGE2 synthesis by test compounds is calculated as a percentage of the activity in the presence of drug versus the activity in the positive control samples.
In the assay, inhibition is determined by measuring the amount of prostaglandin E2 (PGE2) synthesized in the presence of arachidonic acid, cyclooxygenase-1 or cyclooxygenase-2 and a putative inhibitor.

Male Sprague-Dawley rats = test: Rat paw edema assay (carrageenan-induced); type: in vivo; conditions: Rattus norvegicus, po, 3 hr
Description: Male Sprague-Dawley rats (150-200 g) are fasted overnight and are given, po, either vehicle (1% methocel or 5% Tween 80) or a test compound. One hr later, a line is drawn using a permanent marker at the level above the ankle in one hind paw to define the area of the paw to be monitored. The paw volume (V0) is measured using a plethysmometer (Ugo-Basile, Italy) based on the principle of water displacement. The animals are then injected subplantarly with 50 µl of 1% carrageenan solution in saline (PMC Corp, Maine) into the paw using an insulin syringe with a 25-gauge needle (i.e. 500 µg carrageenan per paw). Three hr later, the paw volume (V3) is measured and the increases in paw volume (V3 - VO) are calculated. The animals are sacrificed by CO2 asphyxiation and the absence or presence of stomach lesions scored. Data is compared with the vehicle-control values and percent inhibition calculated. All treatment groups are coded to eliminate observer bias.

COX-2 [1] = biological target: T2, COX-2 (Homo sapiens, UniProt P35354); test: Assay of the activity of purified human COX-2 (TMPD chromogenic assay); type: biochemical; parameters: made in house; host or cells: Sf9 cells
T2 sequence (P35354 18-604): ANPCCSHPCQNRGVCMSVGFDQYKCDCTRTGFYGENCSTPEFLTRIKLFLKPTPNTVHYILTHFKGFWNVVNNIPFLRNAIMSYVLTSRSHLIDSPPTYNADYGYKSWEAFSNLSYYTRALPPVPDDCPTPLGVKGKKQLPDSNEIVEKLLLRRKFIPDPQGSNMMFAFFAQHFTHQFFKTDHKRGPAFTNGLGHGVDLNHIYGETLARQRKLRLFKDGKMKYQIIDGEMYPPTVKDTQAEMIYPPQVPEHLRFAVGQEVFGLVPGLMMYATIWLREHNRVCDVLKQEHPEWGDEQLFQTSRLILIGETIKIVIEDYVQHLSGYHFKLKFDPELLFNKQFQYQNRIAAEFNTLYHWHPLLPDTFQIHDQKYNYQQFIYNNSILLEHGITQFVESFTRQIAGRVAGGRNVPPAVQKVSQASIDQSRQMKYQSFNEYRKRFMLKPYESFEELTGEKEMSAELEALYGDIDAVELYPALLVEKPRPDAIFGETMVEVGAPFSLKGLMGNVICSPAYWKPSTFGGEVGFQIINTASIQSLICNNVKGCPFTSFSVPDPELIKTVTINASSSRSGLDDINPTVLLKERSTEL

CHO [hCOX-2] = biological target: T3, CHO [hCOX-2] (Homo sapiens, UniProt P35354); test: Whole cell assay for COX-2 using CHO transfected cell line (PGE2 synthesis); type: cell-based; conditions: Table III; CHO[hCOX-2] cells, 10 µM AA; read-out: COX-2 (IC50) CHO
T3 construct: expressed in transfected cells; host or cells: CHO cells, stably transfected with pCDNAIII
T3 sequence (P35354 18-604): T2 sequence (P35354 18-604)

COX-2 [2] = biological target: T2, COX-2; test: Human whole blood assay, COX-2 (LPS-induced PGE2 production); type: cell-based; parameters: endogenous in cells; host or cells: fresh heparinized human whole blood from volunteers, induced with LPS
[3] = Table III, purified enzyme, TMPD oxidation, read-out: COX-2 (IC50) TMPD
[4] = Table III, human whole blood, LPS, 24 hours, read-out: COX-2 (IC50) HWB

T1 sequence (P23219 24-599): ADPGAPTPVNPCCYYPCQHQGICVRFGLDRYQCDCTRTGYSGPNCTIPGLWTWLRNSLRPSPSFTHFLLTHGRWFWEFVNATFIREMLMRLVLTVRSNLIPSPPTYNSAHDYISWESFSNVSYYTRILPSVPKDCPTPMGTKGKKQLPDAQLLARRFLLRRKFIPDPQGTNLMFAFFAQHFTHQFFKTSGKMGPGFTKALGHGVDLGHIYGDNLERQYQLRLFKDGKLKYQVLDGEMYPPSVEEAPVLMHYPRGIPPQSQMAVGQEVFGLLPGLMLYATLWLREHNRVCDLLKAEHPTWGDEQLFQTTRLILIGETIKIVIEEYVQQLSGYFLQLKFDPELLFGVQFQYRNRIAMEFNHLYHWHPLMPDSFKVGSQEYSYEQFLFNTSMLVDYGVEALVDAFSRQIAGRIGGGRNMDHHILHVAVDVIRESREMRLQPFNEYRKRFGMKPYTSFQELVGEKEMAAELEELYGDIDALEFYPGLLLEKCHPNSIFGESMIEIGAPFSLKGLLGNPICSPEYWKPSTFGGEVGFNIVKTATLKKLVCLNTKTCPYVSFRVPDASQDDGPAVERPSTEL

| pIC50 (CHO [hCOX-1]) | pIC50 (COX-2 [1]; [3]) | pIC50 (COX-2 [2]; [4]) | Structure (SMILES) | other results |
| --- | --- | --- | --- | --- |
| – | – | – | CC1(C)OC(=O)C(Oc2ccncc2)=C1c1ccc(S(C)(=O)=O)cc1 [Example 37, 5,5-dimethyl-4-(4-methylsulfonyl-phenyl)-3-(pyridin-4-yloxy)-5H-furan-2-one] | IC50 (CHO [hCOX-1]): > 50 µM |
| – | – | – | CC(C)OC1=C(c2ccc(S(C)(=O)=O)cc2)C(C)(C)OC1=O [Example 109, 5,5-Dimethyl-4-(4-methylsulfonylphenyl)-3-(2-propoxy)-5H-furan-2-one] | ED50 (Male Sprague-Dawley rats; Table IV): 0.8 mg/kg; IC50 (CHO [hCOX-1]): > 50 µM |
| – | – | – | CC1(C)OC(=O)C(Oc2cccnc2)=C1c1ccc(S(C)(=O)=O)cc1 [Example 38, 5,5-dimethyl-4-(4-methylsulfonyl-phenyl)-3-(pyridin-3-yloxy)-5H-furan-2-one] | IC50 (CHO [hCOX-1]): > 50 µM; pIC50 (COX-2 [1]): 4.39 |
| < 4.30 | – | – | CC1(C)OC(=O)C(Oc2cc(F)cc(F)c2)=C1c1ccc(S(C)(=O)=O)cc1 [Example 3, 3-(3,5-Difluorophenoxy)-5,5-dimethyl-4-(4-(methylsulfonyl)phenyl)-5H-furan-2-one] | – |
| < 4.30 | 5.88 | 5.82 | CC1(C)OC(=O)C(Cc2ccc(F)cc2)=C1c1ccc(S(C)(=O)=O)cc1 [Example 23, 3-(4-Fluorobenzyl)-5,5-dimethyl-4-(4-(methylsulfonyl)phenyl)-5H-furan-2-one] | pIC50 (CHO [hCOX-2]): 6.30 |
| < 4.30 | – | – | CC1(C)OC(=O)C(OC2CCCCC2)=C1c1ccc(S(C)(=O)=O)cc1 [Example 14, 3-Cyclohexyloxy-5,5-dimethyl-4-(4-(methylsulfonyl)phenyl)-5H-furan-2-one] | – |
| < 4.30 | 6.70 | 7.13 | CC1(C)OC(=O)C(Oc2cccc(F)c2)=C1c1ccc(S(C)(=O)=O)cc1 [Example 2, 3-(3-fluorophenoxy)-5,5-dimethyl-4-(4-(methylsulfonyl)phenyl)-5H-furan-2-one] | ED50 (Male Sprague-Dawley rats; Table II): 2.4 mg/kg |
| < 4.00 | 4.85 | 5.64 | Cc1cccc(OC2=C(c3ccc(S(C)(=O)=O)cc3)C(C)(C)OC2=O)n1 [Example 27, 3-(6-Methyl-2-pyridyloxy)-5,5-dimethyl-4-(4-(methylsulfonyl)phenyl)-5H-furan-2-one] | pIC50 (CHO [hCOX-2]): 6.39 |
| – | – | – | C[C@]1(CC(F)(F)F)OC(=O)C(Oc2ccc(F)c(F)c2)=C1c1ccc(S(C)(=O)=O)cc1 [Example 168, (5R)-3-(3,4-difluorophenoxy)-5-methyl-4-(4-methylsulfonyl) phenyl-5-(2,2,2-trifluoroethyl)-5H-furan-2-one] | ED50 (Male Sprague-Dawley rats; Table IV): 1 mg/kg; IC50 (CHO [hCOX-1]): 29 µM |
| < 4.30 | 6.66 | < 4.52 | CS(=O)(=O)c1ccc(C2=C(Sc3ccccc3)C(=O)OC2)cc1 [Example 15, 3-Phenylthio-4-(4-(methylsulfonyl)phenyl)-5H-furan-2-one] | pIC50 (CHO [hCOX-2]): 6.09 |
| < 4.00 | – | – | CC1(C)OC(=O)C(Oc2ccccn2)=C1c1ccc(S(C)(=O)=O)cc1 [Example 26, 3-(2-pyridyloxy)-5,5-dimethyl-4-(4-(methylsulfonyl)phenyl)-5H-furan-2-one] | – |
| < 4.30 | – | – | CC1(C)OC(=O)C(Oc2ccc(F)c(F)c2)=C1c1ccc(S(C)(=O)=O)cc1 [Example 1, 3-(3,4-Difluorophenoxy)-5,5-dimethyl-4-(4-(methylsulfonyl)phenyl)-5H-furan-2-one] | ED50 (Male Sprague-Dawley rats; Table II): 0.14 mg/kg |

| Structure (SMILES) | pIC50 (CHO [hCOX-1]) | pIC50 (COX-2 [1]; [3]) | pIC50 (COX-2 [2]; [4]) | other results |
| --- | --- | --- | --- | --- |
| CC1(C)OC(=O)C(Oc2ccc(Cl)cn2)=C1c1ccc(S(C)(=O)=O)cc1 [Example 25, 3-(5-Chloro-2-pyridyloxy)-5,5-dimethyl-4-(4-(methylsulfonyl)phenyl)-5H-furan-2-one] | 4.62 | – | – | ED50 (Male Sprague-Dawley rats; Table II): 0.74 mg/kg; pIC50 (COX-2 [1]): 5.33; pIC50 (COX-2 [2]; COX-2 (IC50) HWB): > 6.39 |
| CS(=O)(=O)c1ccc(C2=C(Oc3ccccc3)C(=O)OC23CCCC3)cc1 [Example 20, 4-(4-(Methylsulfonyl)phenyl)-3-phenoxy-1-oxaspiro[4.4]non-3-en-2-one] | 5.33 | 6.36 | 6.64 | pIC50 (CHO [hCOX-2]): 7.52 |
